Assay results reported in ChEMBL document CHEMBL5214900, “Design, Synthesis, and Biological Evaluation of Membrane-Active Bakuchiol Derivatives as Effective Broad-Spectrum Antibacterial Agents” (J Med Chem, 2021).
Converted amounts (≈) assume the structure as drawn. The source made the active and inactive calls. The calls are words filed in the database; no cut-off is given here.

Key:
[1] = Cytotoxicity against HEK293 cells assessed as cell viability at 12.5 ug/ml incubated for 24 hrs by CCK-8 assay relative to control; assay type: toxicity, cell-based; settings: human, at 12.5 µg/mL, read-out: Activity
Escherichia coli [2] = experiment: Antibacterial activity against Escherichia coli ATCC 25922 assessed as eradication of preformed bacterial biofilm by measuring residual biofilm viability at 12.5 ug/ml incubated for 24 hrs by crystal violet staining based assay relative to control; assay type: functional; settings: dose 12.5 µg/ml
[3] = Toxicity in C57BL/6 mouse assessed as corneal damage at 0.8 mg/ml, TOP administered 4 times a day for 3 consecutive days; settings: in vivo, topical_or_ocular, 72 h, time 3 day
[4] = Cytotoxicity against mouse NCTC clone 929 cells assessed as cell viability incubated for 24 hrs by CCK-8 assay; assay type: toxicity, cell-based
Staphylococcus aureus [5] = experiment: Antibiofilm activity against Staphylococcus aureus ATCC 29213 assessed reduction in biofilm formation at 0.39 ug/ml measured after 24 hrs by crystal violet staining based assay relative to control; assay type: functional; set-up: scale not given: the % may be the effect or the level left; settings: dose 0.39 µg/ml
Acinetobacter baumannii [6] = experiment: Antibacterial activity against Acinetobacter baumannii ATCC 17978 assessed as fold increase in MIC incubated for 24 hrs in presence of 4.5 mM K+ by CLSI based broth dilution method; assay type: functional
Escherichia coli [7] = experiment: Antibacterial activity against Escherichia coli ATCC 25922 assessed as eradication of preformed bacterial biofilm by measuring residual biofilm viability at 6.25 ug/ml incubated for 24 hrs by crystal violet staining based assay relative to control; assay type: functional; settings: dose 6.25 µg/ml
Lipoteichoic acid [8] = experiment: Displacement of BODIPY-TR-cadaverine from Bacillus subtilis Lipoteichoic acid at 1 times MIC measured for 30 mins by fluorescence based microplate reader assay relative to control
Acinetobacter baumannii [9] = experiment: Antibacterial activity against Acinetobacter baumannii ATCC 17978 assessed as fold increase in MIC incubated for 24 hrs in presence of 1 mM Mg2+ by CLSI based broth dilution method; assay type: functional
Staphylococcus aureus [10] = experiment: Induction of cell death in Staphylococcus aureus ATCC 29213 assessed as residual living cells at 8 times MIC incubated for 2 hrs by SYTO 9/PI staining based fluorescence analysis relative to control; assay type: functional
[11] = Cytotoxicity against mouse NCTC clone 929 cells assessed as cell viability at 6.25 ug/ml incubated for 24 hrs by CCK-8 assay relative to control; assay type: toxicity, cell-based; settings: at 6.25 µg/mL, read-out: Activity
Staphylococcus aureus [12] = experiment: Antibacterial activity against Staphylococcus aureus NCTC10442 assessed as fold increase in MIC incubated for 24 hrs in presence of 2.5 mM Ca2+ by CLSI based broth dilution method; assay type: functional
[13] = Cytotoxicity against mouse NCTC clone 929 cells assessed as cell viability at 12.5 ug/ml incubated for 24 hrs by CCK-8 assay relative to control; assay type: toxicity, cell-based; settings: at 12.5 µg/mL, read-out: Activity
Staphylococcus aureus [14] = experiment: Antibacterial activity against Staphylococcus aureus ATCC 29213 assessed as eradication of preformed bacterial biofilm by measuring residual biofilm viability at 6.25 ug/ml incubated for 24 hrs by crystal violet staining based assay relative to control; assay type: functional; settings: dose 6.25 µg/ml
[15] = Cytotoxicity against mouse NCTC clone 929 cells assessed as cell viability at 50 ug/ml incubated for 24 hrs by CCK-8 assay relative to control; assay type: toxicity, cell-based; settings: at 50 µg/mL, read-out: Activity
[16] = Cytotoxicity against HEK293 cells assessed as cell viability at 3.125 ug/ml incubated for 24 hrs by CCK-8 assay relative to control; assay type: toxicity, cell-based; settings: human, at 3.125 µg/mL, read-out: Activity
[17] = Cytotoxicity against HEK293 cells assessed as cell viability at 25 ug/ml incubated for 24 hrs by CCK-8 assay relative to control; assay type: toxicity, cell-based; settings: human, at 25 µg/mL, read-out: Activity
Staphylococcus aureus [18] = experiment: Antibacterial activity against Staphylococcus aureus ATCC 29213 assessed as eradication of preformed bacterial biofilm by measuring residual biofilm viability at 3.125 ug/ml incubated for 24 hrs by crystal violet staining based assay relative to control; assay type: functional; settings: dose 3.125 µg/ml
Escherichia coli [19] = experiment: Antibiofilm activity against Escherichia coli ATCC 25922 assessed reduction in biofilm formation at 0.78 ug/ml measured after 24 hrs by crystal violet staining based assay relative to control; assay type: functional; set-up: scale not given: the % may be the effect or the level left; settings: dose 0.78 µg/ml
Staphylococcus aureus [20] = experiment: Antibacterial activity against Staphylococcus aureus ATCC 29213 in C57BL/6 mouse model of bacterial keratitis assessed as log reduction in number of viable bacterial colonies in infected cornea at 0.8 mg/ml, TOP administered 4 times a day for 3 consecutive days; assay type: functional; settings: time 3 day
Acinetobacter baumannii [21] = experiment: Antibacterial activity against Acinetobacter baumannii R2889 assessed as inhibition of bacterial growth incubated for 24 hrs by CLSI based broth dilution method; assay type: functional
Escherichia coli [22] = experiment: Antibacterial activity against Escherichia coli ATCC 25922 assessed as fold increase in MIC incubated for 24 hrs in presence of 1 mM Mg2+ by CLSI based broth dilution method; assay type: functional
Klebsiella pneumoniae = experiment: Antibacterial activity against Klebsiella pneumoniae ATCC 14581 assessed as inhibition of bacterial growth incubated for 24 hrs by CLSI based broth dilution method; assay type: functional
Staphylococcus aureus [23] = experiment: Antibacterial activity against Staphylococcus aureus ATCC 29213 assessed as eradication of preformed bacterial biofilm by measuring residual biofilm viability at […] ug/ml incubated for 24 hrs by crystal violet staining based assay relative to control; assay type: functional; settings: dose […] microg/ml, 1.56 ug/mL
Escherichia coli [24] = experiment: Antibacterial activity against Escherichia coli ATCC 25922 assessed as inhibition of bacterial growth incubated for 24 hrs by CLSI based broth dilution method; assay type: functional
Lipoteichoic acid [25] = experiment: Displacement of BODIPY-TR-cadaverine from Bacillus subtilis Lipoteichoic acid at 8 times MIC measured for 30 mins by fluorescence based microplate reader assay relative to control
Acinetobacter baumannii [26] = experiment: Antibacterial activity against Acinetobacter baumannii ATCC 17978 assessed as fold increase in MIC incubated for 24 hrs in presence of 140 mM Na+ by CLSI based broth dilution method; assay type: functional
Staphylococcus aureus [27] = experiment: Antibacterial activity against Staphylococcus aureus ATCC 29213 assessed as eradication of preformed bacterial biofilm by measuring residual biofilm viability at 12.5 ug/ml incubated for 24 hrs by crystal violet staining based assay relative to control; assay type: functional; settings: dose 12.5 µg/ml
Cell membrane = experiment: Disruption of membrane integrity in Pseudomonas aeruginosa ATCC 9027 assessed as increase in red fluorescence intensity at 8 times MIC incubated for 2 hrs by SYTO 9/PI staining based fluorescence analysis; assay type: subcellular
Escherichia coli [28] = experiment: Antibacterial activity against Escherichia coli ATCC 25922 assessed as fold increase in MIC incubated for 24 hrs in presence of 4.5 mM K+ by CLSI based broth dilution method; assay type: functional
Staphylococcus aureus [29] = experiment: Antibiofilm activity against Staphylococcus aureus ATCC 29213 assessed reduction in biofilm formation at 0.78 ug/ml measured after 24 hrs by crystal violet staining based assay relative to control; assay type: functional; set-up: scale not given: the % may be the effect or the level left; settings: dose 0.78 µg/ml
Lipopolysaccharide (LPS) = experiment: Displacement of BODIPY-TR-cadaverine from Escherichia coli Lipopolysaccharide at 1 times MIC measured for 30 mins by fluorescence based microplate reader assay relative to control
Escherichia coli [30] = experiment: Bactericidal activity against Escherichia coli ATCC 25922 assessed as inhibition of bacterial regrowth at 4 to 8 times MIC measured after 24 hrs by time-killing assay; assay type: functional, organism-based

C=C[C@@](C)(/C=C/c1ccc(OCCCCN(CCCN(C)C)CCCN(C)C)cc1)CCC=C(C)C
viability at 24 h, 12.5 ug/ml [1]: 84.9% | Activity (Escherichia coli [2]): 10.78% | Activity [3]: Non-Toxic | CC50 at 24 h [4]: 36.8 µg/mL (≈ 73.9 µM) | Activity (Staphylococcus aureus [5]): 1.65% | fold change (FC) (Acinetobacter baumannii [6]): <2 | Activity (Escherichia coli [7]): 22.69% | Activity (Lipoteichoic acid [8]): 25.4% | fold change (FC) (Acinetobacter baumannii [9]): <2 | Activity (Staphylococcus aureus [10]): 2.2% | viability at 24 h, 6.25 ug/ml [11]: 84.9% | fold change (FC) (Staphylococcus aureus [12]): <2 | viability at 24 h, 12.5 ug/ml [13]: 84.5% | Activity (Staphylococcus aureus [14]): 34.11% | viability at 24 h, 50 ug/ml [15]: 36% | viability at 24 h, 3.125 ug/ml [16]: 94.1% | viability at 24 h, 25 ug/ml [17]: 63.3% | Activity (Staphylococcus aureus [18]): 52.49% | Activity (Escherichia coli [19]): 8.71% | log(activity) (Staphylococcus aureus [20]): 5.7 | MIC (Acinetobacter baumannii [21]): 3.12 µg/mL (≈ 6.28 µM) | fold change (FC) (Escherichia coli [22]): <2 | MIC (Klebsiella pneumoniae): 3.12 µg/mL (≈ 6.28 µM) | Activity (Staphylococcus aureus [23]): 75.68% | MIC (Escherichia coli [24]): 3.12 µg/mL (≈ 6.28 µM) | Activity (Lipoteichoic acid [25]): 57.9% | fold change (FC) (Acinetobacter baumannii [26]): <2 | Activity (Staphylococcus aureus [27]): 24.19% | Activity (Cell membrane): Active | fold change (FC) (Escherichia coli [28]): <2 | Activity (Staphylococcus aureus [29]): 12.91% | Activity (Lipopolysaccharide (LPS)): 36.9% | Activity (Escherichia coli [30]): Active
